From ChEMBL document CHEMBL1201862, “PubChem BioAssay data set” (2004)
Values belong to the molecule of their own block, whether it stands above or below them. Calls of active or inactive are those of the source.

Tests used:
[1] = biological target: Latent membrane protein 1 (Human herpesvirus 4 (strain B95-8), UniProt P03230); experiment: TES1-eGFP NF-kB reporter inhibition versus Tet-On dsRED, dose response, selectivity assay for LMP1 NF-kB inhibitor project, imaging, HEK293T, dual-color eGFP/dsRED, cherry-picks (AID 588398); format: functional, cell-based
Chain of Latent membrane protein 1 (P03230 whole entry): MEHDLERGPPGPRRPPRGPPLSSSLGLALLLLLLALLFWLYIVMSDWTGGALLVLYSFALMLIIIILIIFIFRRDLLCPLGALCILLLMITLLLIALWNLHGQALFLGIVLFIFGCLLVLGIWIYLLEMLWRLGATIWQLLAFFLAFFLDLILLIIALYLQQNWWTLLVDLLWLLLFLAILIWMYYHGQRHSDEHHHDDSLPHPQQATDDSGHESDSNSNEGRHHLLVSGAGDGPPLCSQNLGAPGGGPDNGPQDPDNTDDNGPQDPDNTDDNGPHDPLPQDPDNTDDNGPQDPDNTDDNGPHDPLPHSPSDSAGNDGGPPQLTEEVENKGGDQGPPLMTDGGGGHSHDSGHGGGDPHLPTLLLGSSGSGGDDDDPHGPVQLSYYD

[2] = growth suppression of PTEN-null colon cells, dose response, cell-based, HCT116 PTEN knockout (AID 1047); format: functional;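 note: HCT116 colon tumor cells with PTEN knocked out; cells exposed to compound for 60 hours before readout; potency for loss of cell viability measured by luminescence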
A-375 = experiment: MITF: Counter assay: A375 proliferation Measured in Cell-Based System Using Plate Reader - 2084-03_Inhibitor_Dose_DryPowder_Activity. [Related pubchem assays (depositor defined):AID488944]; format: functional; settings: Homo sapiens
[3] = biological target: T1, Microphthalmia-associated transcription factor (Homo sapiens, UniProt O75030); experiment: TRPM1 promoter luciferase signal decrease, dose response, MITF inhibitor project, cell-based, SK-MEL-5, cherry-picked, set 3 (AID 493073); format: functional
T1 sequence (O75030 whole entry): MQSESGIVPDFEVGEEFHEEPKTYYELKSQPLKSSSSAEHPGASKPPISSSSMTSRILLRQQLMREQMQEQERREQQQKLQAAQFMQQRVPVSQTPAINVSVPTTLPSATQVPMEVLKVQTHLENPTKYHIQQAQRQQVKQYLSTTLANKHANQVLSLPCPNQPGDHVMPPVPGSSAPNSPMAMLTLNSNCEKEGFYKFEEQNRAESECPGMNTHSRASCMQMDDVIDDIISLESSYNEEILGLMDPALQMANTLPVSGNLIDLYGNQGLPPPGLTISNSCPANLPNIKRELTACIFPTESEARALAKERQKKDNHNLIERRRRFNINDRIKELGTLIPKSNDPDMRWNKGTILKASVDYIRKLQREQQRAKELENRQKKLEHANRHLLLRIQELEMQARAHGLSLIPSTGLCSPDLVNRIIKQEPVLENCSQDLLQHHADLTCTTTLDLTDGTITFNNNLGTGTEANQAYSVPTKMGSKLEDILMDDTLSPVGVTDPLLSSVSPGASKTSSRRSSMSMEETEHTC

[4] = growth suppression of beta-catenin-knockout colon cells, dose response, cell-based, HCT116, human colon tumor (AID 1045); format: functional;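 note: HCT116 colon tumor cells with beta catenin knocked out; cells exposed to compound for 60 hours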
CHO = experiment: cytotoxicity in TLR9-MyD88 CHO cells, dose response, cytotoxicity control for TLR9-MyD88 binding inhibitor project, cell-based, luminescence (AID 588339); format: functional, hamster; settings: Cricetulus griseus;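 note: CHO cells stably coexpressing TLR9 and MyD88 fusions from primary screen; compound exposure lasted 48 hours before viability readout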
[5] = biological target: Benomyl/methotrexate resistance protein (Candida albicans, UniProt P28873); experiment: CaMdr1 efflux pump inhibitor potency, dose response, singleplex, Cherry Pick1 hits (AID 588608); format: functional
Chain of Benomyl/methotrexate resistance protein (P28873 whole entry): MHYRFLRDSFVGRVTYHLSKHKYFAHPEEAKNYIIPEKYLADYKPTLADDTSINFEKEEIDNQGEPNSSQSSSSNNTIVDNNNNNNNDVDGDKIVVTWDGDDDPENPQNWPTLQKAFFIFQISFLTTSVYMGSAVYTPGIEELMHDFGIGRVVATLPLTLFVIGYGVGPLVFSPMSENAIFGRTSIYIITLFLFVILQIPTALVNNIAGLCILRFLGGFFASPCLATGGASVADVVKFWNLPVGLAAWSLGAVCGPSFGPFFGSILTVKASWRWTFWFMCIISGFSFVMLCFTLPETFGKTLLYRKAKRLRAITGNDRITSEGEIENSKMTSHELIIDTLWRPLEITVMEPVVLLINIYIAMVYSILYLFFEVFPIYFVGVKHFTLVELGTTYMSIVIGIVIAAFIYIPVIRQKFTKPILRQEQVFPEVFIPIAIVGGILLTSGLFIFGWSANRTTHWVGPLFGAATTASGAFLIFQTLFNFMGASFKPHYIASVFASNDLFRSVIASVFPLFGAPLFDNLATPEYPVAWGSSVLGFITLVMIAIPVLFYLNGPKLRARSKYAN

[6] = biological target: Multidrug resistance protein CDR1 (Candida albicans, UniProt P43071); experiment: CaCDR1 efflux pump inhibitors in yeast, dose response, S. cerevisiae AD1-8u, singleplex, Cherry Pick1 hits (AID 588606); format: functional
Chain of Multidrug resistance protein CDR1 (P43071 whole entry, looked up, the tested form may be a part): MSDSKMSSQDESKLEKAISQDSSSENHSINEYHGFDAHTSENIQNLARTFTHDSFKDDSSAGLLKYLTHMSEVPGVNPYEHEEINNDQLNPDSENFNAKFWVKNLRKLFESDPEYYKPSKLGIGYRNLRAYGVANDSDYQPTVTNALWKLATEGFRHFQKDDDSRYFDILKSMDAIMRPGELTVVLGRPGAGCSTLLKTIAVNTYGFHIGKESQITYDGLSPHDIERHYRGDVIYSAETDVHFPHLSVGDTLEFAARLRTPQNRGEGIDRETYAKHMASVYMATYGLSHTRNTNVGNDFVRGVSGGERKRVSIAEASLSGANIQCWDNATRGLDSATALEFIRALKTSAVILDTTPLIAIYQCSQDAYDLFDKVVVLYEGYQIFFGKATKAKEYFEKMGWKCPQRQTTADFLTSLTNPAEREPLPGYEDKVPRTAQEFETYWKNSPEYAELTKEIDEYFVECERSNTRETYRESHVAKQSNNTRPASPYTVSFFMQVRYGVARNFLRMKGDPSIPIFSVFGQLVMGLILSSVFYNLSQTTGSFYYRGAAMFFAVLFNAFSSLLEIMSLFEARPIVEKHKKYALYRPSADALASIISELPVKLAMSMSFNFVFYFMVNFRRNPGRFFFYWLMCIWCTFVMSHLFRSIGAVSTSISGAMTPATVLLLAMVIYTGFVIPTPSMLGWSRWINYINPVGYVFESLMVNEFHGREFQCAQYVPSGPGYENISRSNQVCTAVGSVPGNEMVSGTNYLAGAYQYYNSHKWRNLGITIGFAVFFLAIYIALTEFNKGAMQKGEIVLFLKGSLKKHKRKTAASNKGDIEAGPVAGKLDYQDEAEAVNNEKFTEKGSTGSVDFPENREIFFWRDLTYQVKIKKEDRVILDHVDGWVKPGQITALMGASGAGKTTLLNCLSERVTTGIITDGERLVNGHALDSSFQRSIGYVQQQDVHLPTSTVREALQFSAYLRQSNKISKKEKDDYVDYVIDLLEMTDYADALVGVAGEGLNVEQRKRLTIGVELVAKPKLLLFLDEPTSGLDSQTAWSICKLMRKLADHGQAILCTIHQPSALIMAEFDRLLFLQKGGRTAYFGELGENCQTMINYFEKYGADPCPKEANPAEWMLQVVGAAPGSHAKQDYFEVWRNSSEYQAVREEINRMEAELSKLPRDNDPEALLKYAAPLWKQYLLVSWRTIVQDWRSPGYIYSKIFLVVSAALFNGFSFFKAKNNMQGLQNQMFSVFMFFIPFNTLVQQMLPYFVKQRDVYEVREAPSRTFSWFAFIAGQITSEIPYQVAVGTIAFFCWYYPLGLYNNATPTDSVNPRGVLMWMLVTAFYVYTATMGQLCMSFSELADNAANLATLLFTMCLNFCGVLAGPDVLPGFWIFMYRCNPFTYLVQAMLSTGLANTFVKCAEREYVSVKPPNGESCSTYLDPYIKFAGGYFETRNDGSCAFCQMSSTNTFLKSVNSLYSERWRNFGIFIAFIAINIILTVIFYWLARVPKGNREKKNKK

Hexokinase HKDC1 = biological target: T2, Hexokinase HKDC1 (Homo sapiens, UniProt Q2TB90); experiment: SAR analysis of small molecule inhibitors of hexokinase domain containing I (HKDC1). [Related pubchem assays (depositor defined):AID493160, AID493190]; format: functional
T2 sequence (Q2TB90 whole entry): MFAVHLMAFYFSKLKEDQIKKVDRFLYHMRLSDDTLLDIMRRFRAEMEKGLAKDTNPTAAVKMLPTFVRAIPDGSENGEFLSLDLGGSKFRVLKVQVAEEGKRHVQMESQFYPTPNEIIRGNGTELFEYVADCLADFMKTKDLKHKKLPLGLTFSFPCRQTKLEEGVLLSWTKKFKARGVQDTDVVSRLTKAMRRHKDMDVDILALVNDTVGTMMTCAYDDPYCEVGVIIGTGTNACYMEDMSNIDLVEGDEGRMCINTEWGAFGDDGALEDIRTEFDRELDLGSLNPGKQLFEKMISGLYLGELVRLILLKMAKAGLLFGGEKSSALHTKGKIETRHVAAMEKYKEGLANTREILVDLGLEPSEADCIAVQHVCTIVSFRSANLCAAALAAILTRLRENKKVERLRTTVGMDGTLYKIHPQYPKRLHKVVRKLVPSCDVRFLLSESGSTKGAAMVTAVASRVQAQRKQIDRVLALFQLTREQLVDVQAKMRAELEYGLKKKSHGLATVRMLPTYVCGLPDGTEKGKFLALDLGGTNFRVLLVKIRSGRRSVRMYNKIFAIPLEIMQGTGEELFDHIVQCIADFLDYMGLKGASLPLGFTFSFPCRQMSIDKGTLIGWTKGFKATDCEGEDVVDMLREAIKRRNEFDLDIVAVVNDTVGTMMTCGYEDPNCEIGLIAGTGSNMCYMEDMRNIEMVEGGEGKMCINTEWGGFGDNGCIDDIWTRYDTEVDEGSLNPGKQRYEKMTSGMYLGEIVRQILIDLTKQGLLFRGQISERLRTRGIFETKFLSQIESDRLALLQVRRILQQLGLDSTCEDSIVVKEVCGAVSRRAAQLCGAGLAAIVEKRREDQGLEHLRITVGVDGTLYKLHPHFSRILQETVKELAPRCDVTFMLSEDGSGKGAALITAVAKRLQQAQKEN

Hexokinase-1 = biological target: T3, Hexokinase-1 (Homo sapiens, UniProt P19367); experiment: SAR analysis of small molecule inhibitors of hexokinase domain containing I (HKDC1) in the hexokinase 1 selectivity assay. [Related pubchem assays (depositor defined):AID493160, AID493190]; format: functional
T3 sequence (P19367 whole entry): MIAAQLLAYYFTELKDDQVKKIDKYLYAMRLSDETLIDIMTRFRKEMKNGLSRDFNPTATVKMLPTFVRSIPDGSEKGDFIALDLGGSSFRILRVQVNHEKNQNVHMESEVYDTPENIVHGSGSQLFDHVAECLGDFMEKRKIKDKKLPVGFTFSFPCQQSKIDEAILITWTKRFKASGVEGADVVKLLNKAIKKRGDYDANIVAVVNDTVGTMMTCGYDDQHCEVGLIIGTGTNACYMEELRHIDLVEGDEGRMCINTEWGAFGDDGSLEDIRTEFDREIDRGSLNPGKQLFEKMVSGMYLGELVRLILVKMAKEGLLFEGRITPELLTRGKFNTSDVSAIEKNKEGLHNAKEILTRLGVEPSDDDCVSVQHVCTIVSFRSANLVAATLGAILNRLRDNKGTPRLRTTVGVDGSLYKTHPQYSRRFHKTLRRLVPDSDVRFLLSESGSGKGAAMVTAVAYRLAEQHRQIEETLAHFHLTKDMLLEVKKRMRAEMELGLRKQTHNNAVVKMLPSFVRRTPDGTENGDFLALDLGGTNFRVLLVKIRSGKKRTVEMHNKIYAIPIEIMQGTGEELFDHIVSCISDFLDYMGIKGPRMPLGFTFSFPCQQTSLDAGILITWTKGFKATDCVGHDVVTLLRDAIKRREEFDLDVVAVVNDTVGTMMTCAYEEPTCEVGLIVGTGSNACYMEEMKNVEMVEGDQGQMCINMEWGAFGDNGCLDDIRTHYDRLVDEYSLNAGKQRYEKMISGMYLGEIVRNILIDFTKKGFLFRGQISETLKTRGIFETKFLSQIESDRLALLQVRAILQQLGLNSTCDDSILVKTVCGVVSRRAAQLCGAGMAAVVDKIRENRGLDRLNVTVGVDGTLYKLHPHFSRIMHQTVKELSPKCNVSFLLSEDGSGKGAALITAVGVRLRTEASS

INS1 [7] = experiment: inhibitors of cytokine-induced nitrite release, dose response, cell-based, Griess absorbance, INS-1E, dry powder, set 2 (AID 488868); format: functional; settings: Rattus norvegicus
[8] = inhibitors of cytokine-induced nitrite release, dose response, cell-based, Griess absorbance, INS-1E, dry powder, set 3 (AID 488870); format: functional; settings: Rattus norvegicus
INS1 [9] = experiment: protection of INS-1E cells from cytokine death, dose response, ATP luminescence, dry powder (AID 488844); format: functional, cell-based; settings: Rattus norvegicus
Aurora kinase A = biological target: T4, Aurora kinase A (Homo sapiens, UniProt O14965); format: functional;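 note: value from the Navigating the Kinome kinase panel profiling, panel entry STK6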
T4 sequence (O14965 whole entry): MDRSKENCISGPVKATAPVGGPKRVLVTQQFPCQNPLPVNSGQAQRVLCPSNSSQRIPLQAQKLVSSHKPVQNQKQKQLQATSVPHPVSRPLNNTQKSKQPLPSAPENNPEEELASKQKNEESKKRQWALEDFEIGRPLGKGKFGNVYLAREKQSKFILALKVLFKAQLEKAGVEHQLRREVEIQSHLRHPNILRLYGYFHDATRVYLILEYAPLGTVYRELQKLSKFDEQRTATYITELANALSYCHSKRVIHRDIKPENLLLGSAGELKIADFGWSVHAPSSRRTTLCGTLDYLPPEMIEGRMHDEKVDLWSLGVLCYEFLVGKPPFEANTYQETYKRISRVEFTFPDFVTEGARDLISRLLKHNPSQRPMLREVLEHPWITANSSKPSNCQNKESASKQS

[10] = biological target: Vascular endothelial growth factor receptor 2 (Homo sapiens, UniProt P35968); format: functional
Chain of Vascular endothelial growth factor receptor 2 (P35968 whole entry): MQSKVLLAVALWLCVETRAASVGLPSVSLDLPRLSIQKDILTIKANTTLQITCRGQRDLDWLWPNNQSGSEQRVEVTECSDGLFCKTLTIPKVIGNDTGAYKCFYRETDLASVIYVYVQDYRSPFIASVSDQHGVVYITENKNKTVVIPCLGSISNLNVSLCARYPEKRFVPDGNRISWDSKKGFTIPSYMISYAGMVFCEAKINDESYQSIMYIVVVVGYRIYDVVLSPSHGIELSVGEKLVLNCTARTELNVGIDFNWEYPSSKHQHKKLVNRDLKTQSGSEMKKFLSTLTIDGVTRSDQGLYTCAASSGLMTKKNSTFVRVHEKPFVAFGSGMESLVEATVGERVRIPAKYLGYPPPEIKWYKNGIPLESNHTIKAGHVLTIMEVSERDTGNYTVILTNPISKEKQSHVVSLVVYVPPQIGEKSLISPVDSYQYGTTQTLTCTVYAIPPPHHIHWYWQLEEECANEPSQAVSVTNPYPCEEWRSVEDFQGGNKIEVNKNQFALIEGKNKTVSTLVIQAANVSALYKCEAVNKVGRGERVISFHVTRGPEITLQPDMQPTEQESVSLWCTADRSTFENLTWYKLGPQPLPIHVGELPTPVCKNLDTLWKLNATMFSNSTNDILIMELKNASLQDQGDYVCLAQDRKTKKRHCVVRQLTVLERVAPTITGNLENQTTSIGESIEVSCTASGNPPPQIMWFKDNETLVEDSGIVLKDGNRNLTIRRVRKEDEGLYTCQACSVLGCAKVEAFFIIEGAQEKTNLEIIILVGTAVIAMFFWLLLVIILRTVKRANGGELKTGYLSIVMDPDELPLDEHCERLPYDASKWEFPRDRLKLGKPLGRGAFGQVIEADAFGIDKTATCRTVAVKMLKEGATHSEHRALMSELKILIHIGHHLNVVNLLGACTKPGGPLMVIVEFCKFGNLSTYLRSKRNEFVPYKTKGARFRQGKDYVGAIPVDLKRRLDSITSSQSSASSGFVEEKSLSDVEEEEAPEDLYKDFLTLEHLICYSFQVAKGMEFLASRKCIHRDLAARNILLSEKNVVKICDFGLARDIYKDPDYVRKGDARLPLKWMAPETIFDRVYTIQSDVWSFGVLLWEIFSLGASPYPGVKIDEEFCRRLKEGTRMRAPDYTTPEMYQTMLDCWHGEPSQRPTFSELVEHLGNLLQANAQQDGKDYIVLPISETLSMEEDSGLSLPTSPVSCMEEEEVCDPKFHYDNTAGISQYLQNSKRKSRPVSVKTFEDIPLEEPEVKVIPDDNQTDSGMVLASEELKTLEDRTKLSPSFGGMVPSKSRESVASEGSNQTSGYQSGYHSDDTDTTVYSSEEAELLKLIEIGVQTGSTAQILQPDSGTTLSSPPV

Aurora kinase B = Aurora kinase B (Homo sapiens, UniProt Q96GD4); format: functional
Chain of Aurora kinase B (Q96GD4 whole entry): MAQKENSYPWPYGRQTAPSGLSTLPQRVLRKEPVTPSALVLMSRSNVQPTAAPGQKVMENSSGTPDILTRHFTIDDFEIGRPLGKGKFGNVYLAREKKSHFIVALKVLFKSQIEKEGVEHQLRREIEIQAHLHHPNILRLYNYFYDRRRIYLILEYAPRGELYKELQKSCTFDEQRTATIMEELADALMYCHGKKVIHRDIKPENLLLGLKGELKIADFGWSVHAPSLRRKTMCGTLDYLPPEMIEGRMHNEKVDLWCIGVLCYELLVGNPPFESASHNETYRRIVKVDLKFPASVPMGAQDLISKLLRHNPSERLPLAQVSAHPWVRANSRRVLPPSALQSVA

[11] = biological target: Melanin-concentrating hormone receptor 1 (Homo sapiens, UniProt Q99705); experiment: Late-stage fluorescence-based counterscreen for antagonists of the G-protein coupled receptor 7 (GPR7): cell-based dose response assay to identify antagonists of the melanin-concentrating hormone receptor 1 (MCHR1) Set 5.; format: functional
Chain of Melanin-concentrating hormone receptor 1 (Q99705 whole entry): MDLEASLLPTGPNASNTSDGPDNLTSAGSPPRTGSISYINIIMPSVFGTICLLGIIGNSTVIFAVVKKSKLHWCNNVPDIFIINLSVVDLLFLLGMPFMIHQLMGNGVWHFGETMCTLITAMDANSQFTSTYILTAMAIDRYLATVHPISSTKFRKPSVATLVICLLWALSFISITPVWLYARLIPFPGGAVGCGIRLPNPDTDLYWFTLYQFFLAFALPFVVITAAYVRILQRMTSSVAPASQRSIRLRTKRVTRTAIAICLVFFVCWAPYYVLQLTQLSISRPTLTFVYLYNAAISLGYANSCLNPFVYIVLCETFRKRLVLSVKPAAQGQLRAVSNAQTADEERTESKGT

HEK293 = experiment: inhibitors of LMP1-driven NF-kB reporter, dose response, cell-based, HEK293, luciferase, cherry-pick (AID 588343); format: functional; settings: Homo sapiens

AC50 [1]: 53.1 µM (active)
Compound: COCCN1Cc2cccc(C(=O)N3CCN(c4cc(C)ccc4C)CC3)c2C1=O

Compound: CCCCN(C)CC(O)Cn1cc(/C=C/C(=O)c2cccs2)c2ccccc21 (stereo unspecified)
EC50 [2]: 13.4 µM (active) | AC50 (A-375): 40.9 µM (active) | AC50 [3]: 14.3 µM (active) | EC50 [4]: 10.5 µM (active) | IC50 (CHO): 14.9 µM (inactive)

Compound: COc1ccc2sc(-c3ccccc3OC)c(-c3ccc(OCCN4CCOCC4)cc3)c2c1
EC50 [5]: 10.6 µM (active) | EC50 [6]: 10 µM (active)

IC50 (Hexokinase HKDC1): > 80 µM (inactive) | IC50 (Hexokinase-1): > 80 µM (inactive)
Compound: O=c1c2ccccc2nc(/C=C\c2ccccc2Cl)n1Cc1ccccc1

IC50 (Hexokinase HKDC1): 9.86 µM (active) | IC50 (Hexokinase-1): 65.3 µM (inactive)
Compound: O=S(=O)(Nc1cc(Sc2nc[nH]n2)c(O)c2ccccc12)c1ccc(Cl)cc1

Compound: C[C@@H]1CN([C@@H](C)CO)C(=O)c2cccc(NC(=O)Nc3cccc4ccccc34)c2O[C@H]1CN(C)S(=O)(=O)c1ccc(F)cc1
AC50 (INS1 [7]): 138 µM (active) | AC50 [8]: 77.2 µM (active) | AC50 (INS1 [9]): 7.41 µM (active)

Ki (Aurora kinase A): 1.58 µM (active) | Ki [10]: > 5.01 µM (inactive) | Ki (Aurora kinase B): 0.0158 µM (active)
Compound: CC(C)CC(CO)NC(=O)C=Cc1cnc(N)c2ccccc12 (stereo unspecified)

IC50 [11]: 17.9 µM (inactive)
Compound: O=c1c(Oc2ccc3c(c2)CCC3)c(Cl)cnn1Cc1cccc2ccccc12

Compound: COc1cc([C@@H]2c3cc4c(cc3[C@@H](O[C@@H]3O[C@@H]5CO[C@@H](C)O[C@H]5[C@H](O)[C@H]3O)[C@H]3COC(=O)[C@H]23)OCO4)cc(OC)c1O [ETOPOSIDE]
AC50 (HEK293): 0.784 µM (active) | AC50 [1]: 0.4 µM (active)
